# Measurements published in US20250243203A1, “NICOTINAMIDE- AND BENZAMIDE-BASED COMPOUNDS, CONJUGATES, AND COMPOSITIONS AS INHIBITORS OF TRANSLATIONAL- AND TRANSCRIPTIONAL-RELATED KINASES” (PURDUE RESEARCH FOUNDATION, priority 2022, published 2025).
# Tests used:
# Caki-1 (renal cancer) = assay: Growth inhibition of Caki-1 (NCI-60 human tumor cell line screen); assay type: cell-based; settings: 200 nM
# [1] = tested on: 4T1 (breast) syngeneic tumor; assay: 4T1 in vivo tumor reduction; set-up: species or system Female Balb-C mice; settings: 15 mg/kg orally QD, 5 days on 2 days off
# Description: 0.5×10^6 4T1 cells were injected subcutaneously (SQ) into the right flank of Female Balb-C mice. Each group consisted of 5 tumor-bearing mice. 7 days after tumor implantation, mice were dosed orally QD with vehicle control (5% DMSO, 40% PEG300, 5% tween 80, 50% water) or HSND80 (15 mg/Kg). Mice were dosed 5 days on and 2 days off (drug holiday). Tumors were measured every other day (L, W, H) to give tumor volume in mm^3.
# [2] = Oral bioavailability study in mice; assay type: in vivo, Male CD1 Mice; settings: 10 mg/Kg, FIG. 5
# Description: The bioavailability and Cmax of the ring-6-substituted imidazo[1,2-b]pyridazine compounds were also assessed.
# Briefly, compounds were dissolved in 10% dimethylsulfoxide (DMSO)/90% (20% HP-β-CD in water (w/w)). Male CD1 Mice (n=3) were dosed orally with 10 mg/Kg of each compound (HSND80, HSND41, HSND101, HSND102, HSND141, and HSND156). Blood was sampled at 0.25 hours, 0.5 hour, 1 hour, 2 hours, 4 hours, 8 hours, and 24 hours post dose, and the concentration of compound in blood at each specific time point was determined via liquid chromatography-mass spectrometry (LC-MS) (high-performance liquid chromatography (HPLC) instrument: Shimadzu; MS instrument: AB API 5500 LC/MS/MS; Column: HALO C18 90 A 2.7 μm (30*2.1 mm); Mobile phase A: 5% Acetonitrile in Water (0.1% Formic acid); Mobile phase B: 95% Acetonitrile in Water (0.1% Formic acid)).
# p70S6K = p70S6K (Homo sapiens, UniProt P23443); assay: p70S6K inhibition, in vitro studies at Reaction Biology Corporation; assay type: biochemical; settings: 25 nM compound, [ATP]=10 uM
# Sequence of p70S6K (P23443 whole entry): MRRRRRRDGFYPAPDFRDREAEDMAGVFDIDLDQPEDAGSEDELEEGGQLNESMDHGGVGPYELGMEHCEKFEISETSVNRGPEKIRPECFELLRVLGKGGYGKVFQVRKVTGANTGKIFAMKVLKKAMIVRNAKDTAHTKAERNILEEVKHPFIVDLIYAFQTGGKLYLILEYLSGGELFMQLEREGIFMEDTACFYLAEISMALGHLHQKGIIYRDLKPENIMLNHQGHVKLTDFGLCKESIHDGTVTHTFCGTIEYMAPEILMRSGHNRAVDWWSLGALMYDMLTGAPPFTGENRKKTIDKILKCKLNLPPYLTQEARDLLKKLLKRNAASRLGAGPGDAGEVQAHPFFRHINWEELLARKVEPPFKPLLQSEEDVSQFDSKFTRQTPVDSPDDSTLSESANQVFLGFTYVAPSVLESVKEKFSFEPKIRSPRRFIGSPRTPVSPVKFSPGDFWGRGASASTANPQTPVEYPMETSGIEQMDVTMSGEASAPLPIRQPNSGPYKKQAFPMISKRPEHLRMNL
# Description: The nature of the substituent on the imidazo[1,2-b]pyridazine moiety at position-6 was evaluated in in vitro studies performed at Reaction Biology Corporation (Malvern, PA). The results indicated the specific substituent dramatically affected the inhibition of p70S6K.
# MNK2 = MNK2 (Homo sapiens, UniProt Q9HBH9); assay: MNK2 inhibition, in vitro studies at Reaction Biology Corporation; assay type: biochemical; settings: 50 nM compound, 10 uM ATP
# Sequence of MNK2 (Q9HBH9 whole entry): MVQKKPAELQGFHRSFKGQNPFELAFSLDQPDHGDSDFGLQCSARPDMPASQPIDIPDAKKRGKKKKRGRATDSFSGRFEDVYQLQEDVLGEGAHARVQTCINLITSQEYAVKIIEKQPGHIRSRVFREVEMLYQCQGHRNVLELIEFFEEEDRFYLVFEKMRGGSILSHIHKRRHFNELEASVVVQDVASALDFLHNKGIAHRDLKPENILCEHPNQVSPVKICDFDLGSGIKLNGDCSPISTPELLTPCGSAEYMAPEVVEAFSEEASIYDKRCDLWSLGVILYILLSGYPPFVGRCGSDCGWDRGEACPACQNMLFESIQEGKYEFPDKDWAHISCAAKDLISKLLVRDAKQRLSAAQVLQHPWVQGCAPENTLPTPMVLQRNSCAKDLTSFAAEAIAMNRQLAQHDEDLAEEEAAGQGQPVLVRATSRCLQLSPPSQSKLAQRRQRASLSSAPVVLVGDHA
smiles,measurement,setting,value
"C[C@@H]1CN(c2ccc3ncc(C#Cc4cncc(C(=O)Nc5ccc(CN6CCN(C)CC6)c(C(F)(F)F)c5)c4)n3n2)C[C@H](C)O1 [HSND80, 5-((6-((2S,6R)-2,6-Dimethylmorpholino)imidazo[1,2-b]pyridazin-3-yl)ethynyl)-N-(4-((4-methylpiperazin-1-yl)methyl)-3-(trifluoromethyl)phenyl)nicotinamide]",inhibition at 0.2 µM,Caki-1 (renal cancer),100%
same,reduction of growth of 4T1 tumor,[1],~60%
same,bioavailability,[2],more bioavailablity than unsubstituted morpholine (compound HSND41)
same,inhibition of p70S6K,p70S6K,97%
same,inhibition at 0.05 µM,MNK2,96%
